Results from patent US20260070945A1, “MACROCYCLIC IMMUNOMODULATORS” (Bristol-Myers Squibb Company, priority 2022, published 2026).
*1 amine or outer side, *2 acyl side, *3 side chain or, on linkers, in order; H or OH if unused. Where a SMILES comes first, the peptide text is derived from it. Bridges are numbered along the chain shown (N, C = ends). [ ]: non-standard residue; d: D form. The star is where a group is joined. ξ: configuration not given here. Phe(3-CF3) = N[C@@H](Cc1cccc(C(F)(F)F)c1)C(=O)O; Phe(4-COOH) = N[C@@H](Cc1ccc(C(=O)O)cc1)C(=O)O; Bip = N[C@@H](Cc1ccc(-c2ccccc2)cc1)C(=O)O; Phe(3-Cl) = N[C@@H](Cc1cccc(Cl)c1)C(=O)O; Phe(3-Me) = Cc1cccc(C[C@H](N)C(=O)O)c1; Phe(4-F) = N[C@@H](Cc1ccc(F)cc1)C(=O)O; γGlu = O=C(O)[C@H](CCC(=O)[*:2])N[*:1]; NH(CH2)12COOH = O=C(O)CCCCCCCCCCCCN*; Cyclopropanecarbonyl = O=C(C1CC1)*; 4Pal = N[C@@H](Cc1ccncc1)C(=O)O; Cha = N[C@@H](CC1CCCCC1)C(=O)O; Ile(3ξ) = CCC(C)[C@H](N)C(=O)O; Thr(3ξ) = CC(O)[C@H](N)C(=O)O; NMeNle = CCCC[C@H](NC)C(=O)O; 12Ado = NCCCCCCCCCCCC(=O)O; Carboxymethyl = O=C(O)C*; NMeA = CN[C@@H](C)C(=O)O; Orn = NCCC[C@H](N)C(=O)O; Pra = C#CC[C@H](N)C(=O)O; Aun = NCCCCCCCCCCC(=O)O; Dab = NCC[C@H](N)C(=O)O; Dap = NC[C@H](N)C(=O)O; AEEA = NCCOCCOCC(=O)O

The compounds below were run against T1, PD-1/PD-L1 interaction (PE-labeled human PD-L1-Ig binding to Jurkat cell line over-expressing human PD-1) (Homo sapiens, UniProt Q15116) (assay: Jurkat-PD-1 Cell Binding High-Content Screening Assay (CBA)). Conditions: Jurkat-hPD-1 cells, PE-labeled PD-L1-Ig 20 nM final; read-out: Jurkat HPD1 PDL1 IC50.
T1 construct: expressed in transfected cells; host or cells: Jurkat
T1 sequence (Q15116 25-288): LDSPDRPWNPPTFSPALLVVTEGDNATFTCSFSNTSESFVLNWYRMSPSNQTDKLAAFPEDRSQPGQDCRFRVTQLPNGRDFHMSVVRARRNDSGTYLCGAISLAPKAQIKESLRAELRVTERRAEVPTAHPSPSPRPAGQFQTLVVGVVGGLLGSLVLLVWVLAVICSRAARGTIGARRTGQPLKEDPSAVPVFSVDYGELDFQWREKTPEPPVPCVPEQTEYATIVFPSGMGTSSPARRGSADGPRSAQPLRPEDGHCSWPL
Method in brief: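 Jurkat cells overexpressing human PD-1 (8×10^3/well, DMEM + 10% FCS) preincubated with compound 2 h at 37 °C, then PE-labelled human PD-L1-Ig (20 nM final) for 1 h. Cells fixed in paraformaldehyde with Hoechst 33342; bound PD-L1 quantified by high-content imaging.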

SMILES	IC50 [nM]
CCC(C)[C@@H]1NC(=O)[C@H](Cc2ccc(-c3ccccc3)cc2)NC(=O)[C@H](C(C)C)NC(=O)[C@H](Cc2c[nH]c3ccccc23)NC(=O)[C@H](CC(=O)O)NC(=O)[C@H](Cc2ccc(OCC(=O)O)cc2)NC(=O)[C@H](C(C)O)NC(=O)CSC[C@@H](C(=O)N[C@@H](C)C(=O)NCCOCCOCC(=O)N[C@@H](CCC(=O)NCCOCCOCC(=O)N[C@@H](CCC(=O)NCCOCCOCC(=O)N[C@@H](CCCN)C(=O)NCCCCCCCCCCCC(=O)O)C(=O)O)C(=O)O)NC(=O)[C@H](C(C)O)NC(=O)[C@H](C(C)C)NC(=O)[C@H](CC2CCCCC2)NC(=O)[C@H](CCN)NC(=O)[C@@H](CC(C)C)NC(=O)[C@H](C)N(C)C1=O (stereo partly drawn) [Example 2010] ({CH2CO}-[Thr(3ξ)]Y(Carboxymethyl)DWV[Bip][Ile(3ξ)][NMeA][dL][Dab][Cha]V[Thr(3ξ)]CA[AEEA][γGlu][AEEA][γGlu][AEEA][Orn][12Ado]-OH; thioether N-14)	34.8
Cc1cccc(C[C@@H]2NC(=O)[C@H](CC(=O)O)NC(=O)[C@H](Cc3ccc(OCC(=O)O)cc3)NC(=O)[C@H](Cc3ccncc3)NC(=O)CSC[C@@H](C(=O)N[C@@H](CCCN)C(=O)N[C@@H](CO)C(=O)NCCCCCCCCCCCC(=O)O)NC(=O)[C@H](C(C)O)NC(=O)[C@H](C(C)C)NC(=O)[C@H](CC3CCCCC3)NC(=O)[C@H](CCN)NC(=O)[C@@H](CC(C)C)NC(=O)[C@H](C)N(C)C(=O)[C@H](CCCNC(=O)C3CC3)NC(=O)[C@H](Cc3ccc(-c4ccccc4)cc3)NC(=O)[C@H](Cc3ccc(O)cc3)NC2=O)c1 (stereo partly drawn) [Example 2403] ({CH2CO}-[4Pal]Y(Carboxymethyl)D[Phe(3-Me)]Y[Bip][Orn](Cyclopropanecarbonyl)[NMeA][dL][Dab][Cha]V[Thr(3ξ)]C[Orn]S[12Ado]-OH; thioether N-14)	47.9
COC[C@@H]1NC(=O)CSC[C@@H](C(=O)N[C@@H](CCN)C(=O)NCCCCCCCCCCCCC(=O)O)NC(=O)[C@H](CCC(=O)O)NC(=O)[C@H](C(C)C)NC(=O)[C@H](CC2CCCCC2)NC(=O)[C@H](CCN)NC(=O)[C@@H](CC(C)C)NC(=O)[C@H](C)N(C)C(=O)[C@H](CCC(N)=O)NC(=O)[C@H](Cc2ccc(-c3ccccc3)cc2)NC(=O)[C@H](Cc2ccc(C(=O)O)cc2)NC(=O)[C@H](Cc2cccc(C(F)(F)F)c2)NC(=O)[C@H](CC(=O)O)NC(=O)[C@H](Cc2ccc(OCC(=O)O)cc2)NC1=O [Example 1135] ({CH2CO}-S(Me)Y(Carboxymethyl)D[Phe(3-CF3)][Phe(4-COOH)][Bip]Q[NMeA][dL][Dab][Cha]VEC[Dab]-{NH(CH2)12COOH}; thioether N-14)	12.5
CCC(C)[C@@H]1NC(=O)[C@H](Cc2ccc(-c3ccccc3)cc2)NC(=O)[C@H](C(C)C)NC(=O)[C@H](Cc2c[nH]c3ccccc23)NC(=O)[C@H](CC(=O)O)NC(=O)[C@H](Cc2ccc(O)cc2)NC(=O)[C@H](Cc2ccncc2)NC(=O)CSC[C@@H](C(=O)N[C@@H](C)C(=O)NCCOCCOCC(=O)N[C@@H](CCCN)C(=O)NCCCCCCCCCCC(=O)O)NC(=O)[C@H](C(C)O)NC(=O)[C@H](C(C)C)NC(=O)[C@H](CC2CCCCC2)NC(=O)[C@H](CCN)NC(=O)[C@@H](CC(C)C)NC(=O)[C@H](C)N(C)C1=O (stereo partly drawn) [Example 2077] ({CH2CO}-[4Pal]YDWV[Bip][Ile(3ξ)][NMeA][dL][Dab][Cha]V[Thr(3ξ)]CA[AEEA][Orn][Aun]-OH; thioether N-14)	14.1
CC(C)C[C@H]1NC(=O)[C@H](C)N(C)C(=O)[C@H](C(C)C)NC(=O)[C@H](Cc2ccc(-c3ccccc3)cc2)NC(=O)[C@H](C(C)C)NC(=O)[C@H](Cc2c[nH]c3ccccc23)NC(=O)[C@H](CC(=O)O)NC(=O)[C@H](Cc2ccc(OCC(=O)O)cc2)NC(=O)[C@H](CCCNC(=N)N)NC(=O)CSC[C@@H](C(=O)N[C@H](CC(N)=O)C(=O)NCCOCCOCC(=O)NCCCCCCCCCCCC(=O)O)NC(=O)[C@H](CCCCN)NC(=O)[C@H](C(C)C)NC(=O)[C@H](CC2CCCCC2)NC(=O)[C@H](CCN)NC1=O [Example 2204] ({CH2CO}-RY(Carboxymethyl)DWV[Bip]V[NMeA][dL][Dab][Cha]VKC[dN][AEEA][12Ado]-OH; thioether N-14)	20.3
C#CC[C@H](NC(=O)[C@H](CCN)NC(=O)[C@@H]1CSCC(=O)N[C@@H]([C@@H](C)O)C(=O)N[C@@H](Cc2ccc(OCC(=O)O)cc2)C(=O)N[C@@H](CC(=O)O)C(=O)N[C@@H](Cc2cccc(Cl)c2)C(=O)N[C@@H](Cc2ccc(C(=O)O)cc2)C(=O)N[C@@H](Cc2ccc(-c3ccccc3)cc2)C(=O)N[C@@H](Cc2ccc(OCC(=O)O)cc2)C(=O)N(C)[C@@H](C)C(=O)N[C@H](CC(C)C)C(=O)N[C@@H](CCN)C(=O)N[C@@H](CC2CCCCC2)C(=O)N[C@@H](C(C)C)C(=O)N[C@@H]([C@@H](C)O)C(=O)N1)C(=O)NCCCCCCCCCCC(=O)O [Example 1239] ({CH2CO}-TY(Carboxymethyl)D[Phe(3-Cl)][Phe(4-COOH)][Bip]Y(Carboxymethyl)[NMeA][dL][Dab][Cha]VTC[Dab][Pra][Aun]-OH; thioether N-14)	10.5

Next, values leading:

IC50 [nM]	SMILES
269	CCCC[C@H]1C(=O)N[C@H](CC(C)C)C(=O)N[C@@H](CCN)C(=O)N[C@@H](CC2CCCCC2)C(=O)N[C@@H](C(C)C)C(=O)N[C@@H](C(C)O)C(=O)N[C@H](C(=O)N[C@@H](CCCCN)C(=O)NCCOCCOCC(=O)NCCCCCCCCCCC(=O)O)CSCC(=O)N[C@@H](Cc2ccncc2)C(=O)N[C@@H](Cc2ccc(OCC(=O)O)cc2)C(=O)N[C@@H](CC(=O)O)C(=O)N[C@@H](Cc2c[nH]c3ccccc23)C(=O)N[C@@H](C(C)C)C(=O)N[C@@H](Cc2ccc(-c3ccccc3)cc2)C(=O)N[C@@H](CC(C)C)C(=O)N1C (stereo partly drawn) [Example 2115] ({CH2CO}-[4Pal]Y(Carboxymethyl)DWV[Bip]L[NMeNle][dL][Dab][Cha]V[Thr(3ξ)]CK[AEEA][Aun]-OH; thioether N-14)
28.2	Cc1cccc(C[C@@H]2NC(=O)[C@H](CC(=O)O)NC(=O)[C@H](Cc3ccc(OCC(=O)O)cc3)NC(=O)[C@H](CN)NC(=O)CSC[C@@H](C(=O)N[C@@H](CCN)C(=O)NCCCCCCCCCCC(=O)O)NC(=O)[C@H](CCCN)NC(=O)[C@H](C(C)C)NC(=O)[C@H](CC3CCCCC3)NC(=O)[C@H](CCN)NC(=O)[C@@H](CC(C)C)NC(=O)[C@H](C)N(C)C(=O)[C@H](Cc3ccc(O)cc3)NC(=O)[C@H](Cc3ccc(-c4ccccc4)cc3)NC(=O)[C@H](Cc3ccc(O)cc3)NC2=O)c1 [Example 1313] ({CH2CO}-[Dap]Y(Carboxymethyl)D[Phe(3-Me)]Y[Bip]Y[NMeA][dL][Dab][Cha]V[Orn]C[Dab][Aun]-OH; thioether N-14)
24.4	CC(C)C[C@H]1NC(=O)[C@H](C)N(C)C(=O)[C@H](CCC(=O)O)NC(=O)[C@H](Cc2ccc(-c3ccccc3)cc2)NC(=O)[C@H](C(C)C)NC(=O)[C@H](Cc2c[nH]c3ccccc23)NC(=O)[C@H](CC(=O)O)NC(=O)[C@H](Cc2ccc(C(=O)O)cc2)NC(=O)[C@H](Cc2ccc(OCC(=O)O)cc2)NC(=O)CSC[C@@H](C(=O)N[C@@H](CCCCN)C(=O)NCCOCCOCC(=O)NCCCCCCCCCCC(=O)O)NC(=O)[C@H](C(C)O)NC(=O)[C@H](C(C)C)NC(=O)[C@H](CC2CCCCC2)NC(=O)[C@H](CCN)NC1=O (stereo partly drawn) [Example 2108] ({CH2CO}-Y(Carboxymethyl)[Phe(4-COOH)]DWV[Bip]E[NMeA][dL][Dab][Cha]V[Thr(3ξ)]CK[AEEA][Aun]-OH; thioether N-14)
23.2	Cc1cccc(C[C@@H]2NC(=O)[C@H](CC(=O)O)NC(=O)[C@H](Cc3ccncc3)NC(=O)[C@H](Cc3ccc(OCC(=O)O)cc3)NC(=O)CSC[C@@H](C(=O)N[C@@H](CCN)C(=O)NCCOCCOCC(=O)NCCCCCCCCCCC(=O)O)NC(=O)[C@H](CCCN)NC(=O)[C@H](C(C)C)NC(=O)[C@H](CC3CCCCC3)NC(=O)[C@H](CC(N)=O)NC(=O)[C@@H](CC(C)C)NC(=O)[C@H](C)N(C)C(=O)[C@H](Cc3ccc(OCC(=O)O)cc3)NC(=O)[C@H](Cc3ccc(-c4ccccc4)cc3)NC(=O)[C@H](Cc3ccc(OCC(=O)O)cc3)NC2=O)c1 [Example 1359] ({CH2CO}-Y(Carboxymethyl)[4Pal]D[Phe(3-Me)]Y(Carboxymethyl)[Bip]Y(Carboxymethyl)[NMeA][dL]N[Cha]V[Orn]C[Dab][AEEA][Aun]-OH; thioether N-14)
10	CCC(C)[C@@H]1NC(=O)[C@H](Cc2ccc(-c3ccccc3)cc2)NC(=O)[C@H](C(C)C)NC(=O)[C@H](Cc2c[nH]c3ccccc23)NC(=O)[C@H](CC(=O)O)NC(=O)[C@H](Cc2ccc(OCC(=O)O)cc2)NC(=O)[C@H](C(C)O)NC(=O)CSC[C@@H](C(=O)N[C@H](CC(N)=O)C(=O)NCCCCCCCCCCC(=O)O)NC(=O)[C@H](CCCCN)NC(=O)[C@H](C(C)C)NC(=O)[C@H](CC2CCCCC2)NC(=O)[C@H](CCN)NC(=O)[C@@H](CC(C)C)NC(=O)[C@H](C)N(C)C1=O (stereo partly drawn) [Example 2210] ({CH2CO}-[Thr(3ξ)]Y(Carboxymethyl)DWV[Bip][Ile(3ξ)][NMeA][dL][Dab][Cha]VKC[dN][Aun]-OH; thioether N-14)

Same assay, conditions: PE-labeled PD-L1-Ig 20 nM final, Jurkat-hPD-1 cells; read-out: Jurkat HPD1 PDL1 IC50

IC50 [nM]	SMILES
2.4	Cc1cccc(C[C@@H]2NC(=O)[C@H](CC(=O)O)NC(=O)[C@H](Cc3ccc(C(=O)O)cc3)NC(=O)[C@H](Cc3ccc(F)cc3)NC(=O)CSC[C@@H](C(=O)N[C@@H](CCN)C(=O)NCCOCCOCC(=O)NCCOCCOCC(=O)NCCCCCCCCCCC(=O)O)NC(=O)[C@H](CCC(=O)O)NC(=O)[C@H](C(C)C)NC(=O)[C@H](CC3CCCCC3)NC(=O)[C@H](CCN)NC(=O)[C@@H](CC(C)C)NC(=O)[C@H](C)N(C)C(=O)[C@H](Cc3ccc(C(=O)O)cc3)NC(=O)[C@H](Cc3ccc(-c4ccccc4)cc3)NC(=O)[C@H](Cc3ccc(C(=O)O)cc3)NC2=O)c1 [Example 2542] ({CH2CO}-[Phe(4-F)][Phe(4-COOH)]D[Phe(3-Me)][Phe(4-COOH)][Bip][Phe(4-COOH)][NMeA][dL][Dab][Cha]VEC[Dab][AEEA][AEEA][Aun]-OH; thioether N-14)
